Assay [1] concerns the target sigma-1 receptor (Homo sapiens, UniProt Q99720). Briefly: Sigma1 binding assay (3H-DTG radioligand, cell membrane). As to conditions: sigma-1R cell membrane, 2 hours at room temperature; for IC50: read-out: Sigma1 Binding Assay Summary IC50; for Ki: read-out: Sigma1 Binding Assay Summary Ki. On the procedure:
(§1) The pharmacodynamic test methods employed in this embodiment are those known to those skilled in the art; the sigma-2 receptor inhibitory activity assay kit employed in this embodiment is commercially available to those skilled in the art. sigmal/sigma-2 receptor affinity activity test:
(§2) In a 96-well plate, eight 4-fold dilutions of the test and reference compounds were made, and 1 μL of each compound was added to each well, and the wells were rearranged. The reference compound Haloperidol was added at a starting concentration of 1 μM, 1 μL of DMSO was added to the high signal control wells (High control), and 1 μL of Haloperidol was added to the low signal control wells (Low control) at a concentration of 200 μM (final concentration of 1 μM), and 100 μL of desired concentration of sigma-1R or sigma-2R cell membrane, diluted in 50 mM Tris-HCl (pH 7.4, Sigma, Cat: T1503-1 KG) was added to each well and 100 μL of desired concentration of 3H-DTG diluted in 50 mM Tris-HCl (pH 7.4) was added to each well, the 96-well plate was sealed, and incubated for 2 hours at room temperature on a shaker at 300 rpm. Simultaneously, GF/C filter plates (PerkinElmer, Cat: NET986250UC) were soaked with 0.3% PEI (Poly ethyleneimine, Sigma, Cat: P3143). After incubation, the cells were collected onto GF/C filter plates with a cell collector (PerkinElmer, model: C961961), washed 4 times with 50 mM Tris-HCl (pH 7.4) wash buffer, and then dried in an oven at 50° C. for 1 h. The bottom of the dried GF/C filter plates were sealed with a membrane, and 50 μL of scintillation solution was added into each well and sealed, and the cells were read by using a Microbeta (PerkinElmer, model: 2450 Microplate Counter). The percentage of activity was calculated using Microsoft Excel software with the formula: % Activity=100×(Sample RawValue−High Control Average)/(Low Control Average-High Control Average), using GraphPad Prism 5 data analysis software. The Dose-response-Stimulation-log [antagonist] vs. response-Variable slope model was selected for fitting analysis to obtain the IC50 value of each tested sample, and the results are shown in Table 1.

The target in assay [2] is sigma-2 receptor (Homo sapiens, UniProt Q5BJF2). Nature of the assay: Sigma 2 binding assay (3H-DTG radioligand, cell membrane). As to conditions: sigma-2R cell membrane, 2 hours at room temperature; for IC50: read-out: Sigma 2 Binding Assay Summary IC50; for Ki: read-out: Sigma 2 Binding Assay Summary Ki. The procedure: as §1, §2

SMILES strings stand for the structures.

sigma-2 receptor, sequence (Q5BJF2 whole entry, species assumed): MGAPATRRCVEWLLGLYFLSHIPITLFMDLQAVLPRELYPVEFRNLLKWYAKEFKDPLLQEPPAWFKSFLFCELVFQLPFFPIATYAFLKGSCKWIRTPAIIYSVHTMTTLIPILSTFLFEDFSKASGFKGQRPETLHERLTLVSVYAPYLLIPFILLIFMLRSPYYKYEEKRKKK
sigma-1 receptor, sequence (Q99720 whole entry): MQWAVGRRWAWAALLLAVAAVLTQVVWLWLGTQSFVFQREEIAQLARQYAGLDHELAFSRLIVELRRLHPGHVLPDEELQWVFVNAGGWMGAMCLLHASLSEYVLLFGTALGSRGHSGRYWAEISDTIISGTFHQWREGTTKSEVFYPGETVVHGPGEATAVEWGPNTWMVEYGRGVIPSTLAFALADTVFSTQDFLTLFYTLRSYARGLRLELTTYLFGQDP

As for `CC(=O)N=S(C)(=O)c1ccc2c(c1)CN(C(C)(C)CCc1ccc(O)c(OC(C)(C)C)c1)C2` (stereo not shown) [Compound 1, N-((2-(4-(3-(tert-butoxy)-4-hydroxyphenyl)-2-methylbutan-2-yl)isoindol-5-yl)(methyl)(oxo)-λ6-thioimido)acetamide], in assay [1], the IC50 was more than 1000 nM and the Ki is more than 1000 nM. In assay [2], the IC50 is more than 100 nM and the Ki is more than 100 nM.

Take `CCC(=O)N=S(C)(=O)c1ccc2c(c1)CN(C(C)(C)CCc1ccc(O)c(OC(C)(C)C)c1)C2` (stereo not shown) [Compound 2, N-((2-(4-(3-(tert-butoxy)-4-hydroxyphenyl)-2-methylbutan-2-yl)isoindol-5-yl)(methyl)(oxo)-26-thioimido) propionamide]: in assay [1], the concentration for half-maximal inhibition (IC50) is more than 1000 nM and the Ki was more than 1000 nM. In assay [2], the IC50 is more than 100 nM and the Ki is more than 100 nM.

For the compound `CCCC(=O)N=S(C)(=O)c1ccc2c(c1)CN(C(C)(C)CCc1ccc(O)c(OC(C)(C)C)c1)C2` (stereo not shown) [Compound 3, N-((2-(4-(3-(tert-butoxy)-4-hydroxyphenyl)-2-methylbutan-2-yl)isoindol-5-yl)(methyl)(oxo)-26-thioimido) butanamide], in assay [1], the IC50 is more than 5000 nM and the Ki is more than 5000 nM. In assay [2], the IC50 is more than 500 nM and the inhibitory constant (Ki) was more than 500 nM.

`CCS(=O)(=NC(C)=O)c1ccc2c(c1)CN(C(C)(C)CCc1ccc(O)c(OC(C)(C)C)c1)C2` (stereo not shown) [Compound 4, N-((2-(4-(3-(tert-butoxy)-4-hydroxyphenyl)-2-methylbutan-2-yl)isoindol-5-yl)(ethyl)(oxo)-26-thioimido)acetamide]: in assay [1], the IC50 was more than 1000 nM and the Ki is more than 1000 nM. Besides, in assay [2], the IC50 is more than 100 nM and the inhibition constant (Ki) is more than 100 nM.

In the case of `CCC(=O)N=S(=O)(CC)c1ccc2c(c1)CN(C(C)(C)CCc1ccc(O)c(OC(C)(C)C)c1)C2` (stereo not shown) [Compound 5, N-((2-(4-(3-(tert-butoxy)-4-hydroxyphenyl)-2-methylbutan-2-yl)isoindol-5-yl)(ethyl)(oxo)-16-thioimido) propionamide], in assay [1], the half-inhibitory concentration (IC50) is more than 1000 nM and the Ki was more than 1000 nM. Moreover, in assay [2], the IC50 was more than 100 nM and the inhibition constant (Ki) is more than 100 nM.

For the compound `CCCC(=O)N=S(=O)(CC)c1ccc2c(c1)CN(C(C)(C)CCc1ccc(O)c(OC(C)(C)C)c1)C2` (stereo not shown) [Compound 6, N-((2-(4-(3-(tert-butoxy)-4-hydroxyphenyl)-2-methylbutan-2-yl)isoindol-5-yl)(ethyl)(oxo)-26-thioimido) butyramide], in assay [1], the IC50 was more than 5000 nM and the Ki is more than 5000 nM. In addition, in assay [2], the IC50 was more than 500 nM and the Ki is more than 500 nM.

Turning to `CCCS(=O)(=NC(C)=O)c1ccc2c(c1)CN(C(C)(C)CCc1ccc(O)c(OC(C)(C)C)c1)C2` (stereo not shown) [Compound 7, N-((2-(4-(3-(tert-butoxy)-4-hydroxyphenyl)-2-methylbutan-2-yl)isoindol-5-yl)(propyl)(oxo)-26-thioimino)acetamide], in assay [1], the IC50 is more than 5000 nM and the Ki is more than 5000 nM. Moreover, in assay [2], the IC50 was more than 500 nM and the Ki is more than 500 nM.

Consider `CCCS(=O)(=NC(=O)CC)c1ccc2c(c1)CN(C(C)(C)CCc1ccc(O)c(OC(C)(C)C)c1)C2` (stereo not shown) [Compound 8, N-((2-(4-(3-(tert-butoxy)-4-hydroxyphenyl)-2-methylbutan-2-yl)isoindol-5-yl)(propyl)(oxo)-26-thioimido) propionamide], for which the IC50 in assay [1] was more than 5000 nM; in assay [2], more than 500 nM. For the same compound, the Ki is more than 5000 nM in assay [1] and more than 500 nM in assay [2].

Consider `CCCC(=O)N=S(=O)(CCC)c1ccc2c(c1)CN(C(C)(C)CCc1ccc(O)c(OC(C)(C)C)c1)C2` (stereo not shown) [Compound 9, N-((2-(4-(3-(tert-butoxy)-4-hydroxyphenyl)-2-methylbutan-2-yl)isoindol-5-yl)(propyl)(oxo)-26-thioimido) butanamide], for which, in assay [1], the 50% inhibitory concentration (IC50) was more than 5000 nM and the inhibition constant (Ki) was more than 5000 nM. Moreover, in assay [2], the IC50 is more than 500 nM and the inhibition constant Ki is more than 500 nM.

Turning to `CCCCS(=O)(=NC(C)=O)c1ccc2c(c1)CN(C(C)(C)CCc1ccc(O)c(OC(C)(C)C)c1)C2` (stereo not shown) [Compound 10], in assay [1], the IC50 is more than 5000 nM and the Ki was more than 5000 nM. In addition, in assay [2], the IC50 is more than 500 nM and the Ki is more than 500 nM.

Regarding `CCCCS(=O)(=NC(=O)CC)c1ccc2c(c1)CN(C(C)(C)CCc1ccc(O)c(OC(C)(C)C)c1)C2` (stereo not shown) [Compound 11, N-((2-(4-(3-(tert-butoxy)-4-hydroxyphenyl)-2-methylbutan-2-yl)isoindol-5-yl)(butyl)(oxo)-26-thioimido) propionamide], the IC50 in assay [1] is more than 5000 nM; in assay [2], more than 500 nM. Also, the Ki was more than 5000 nM in assay [1] and more than 500 nM in assay [2].

As for `CCCCS(=O)(=NC(=O)CCC)c1ccc2c(c1)CN(C(C)(C)CCc1ccc(O)c(OC(C)(C)C)c1)C2` (stereo not shown) [Compound 12, N-((2-(4-(3-(tert-butoxy)-4-hydroxyphenyl)-2-methylbutan-2-yl)isoindol-5-yl)(butyl)(oxo)-26-thiimido) butyramide], the results for the IC50 in assay [1] and in assay [2] were more than 5000 nM and more than 500 nM, respectively. Moreover, the values for the Ki in assay [1] and in assay [2] were more than 5000 nM and more than 500 nM, respectively.

Turning to `CC(=O)N=S(=O)(CF)c1ccc2c(c1)CN(C(C)(C)CCc1ccc(O)c(OC(C)(C)C)c1)C2` (stereo not shown) [Compound 13, N-((2-(4-(3-(tert-butoxy)-4-hydroxyphenyl)-2-methylbutan-2-yl)isoindol-5-yl)(fluoromethyl)(oxo)-26-thioimido)acetamide], in assay [1], the IC50 was more than 1000 nM and the Ki was more than 1000 nM. Besides, in assay [2], the IC50 was more than 100 nM and the Ki was more than 100 nM.

With `CC(=O)N=S(=O)(CCCF)c1ccc2c(c1)CN(C(C)(C)CCc1ccc(O)c(OC(C)(C)C)c1)C2` (stereo not shown) [Compound 14], in assay [1], the IC50 is more than 5000 nM and the Ki is more than 5000 nM. Besides, in assay [2], the IC50 is more than 500 nM and the Ki is more than 500 nM.

As for `CC(=O)N=S(=O)(CCCCF)c1ccc2c(c1)CN(C(C)(C)CCc1ccc(O)c(OC(C)(C)C)c1)C2` (stereo not shown) [Compound 15, N-((2-(4-(3-(tert-butoxy)-4-hydroxyphenyl)-2-methylbutan-2-yl)isoindol-5-yl)(fluoro-butyl)(oxo)-26-thioimido)acetamide], in assay [1], the IC50 was more than 5000 nM and the Ki is more than 5000 nM. For the same compound, in assay [2], the IC50 was more than 500 nM and the Ki is more than 500 nM.

For `CC(C)(C)Oc1cc(CCC(C)(C)N2Cc3ccc(S(C)(=N)=O)cc3C2)ccc1O` (stereo not shown) [Compound 16], in assay [1], the IC50 was more than 100 nM and the Ki is more than 100 nM. Also, in assay [2], the IC50 was less than 100 nM and the Ki was less than 100 nM.

Consider `CCS(=N)(=O)c1ccc2c(c1)CN(C(C)(C)CCc1ccc(O)c(OC(C)(C)C)c1)C2` (stereo not shown) [Compound 17], for which, in assay [1], the IC50 is more than 100 nM and the Ki was more than 100 nM. Further, in assay [2], the IC50 was less than 100 nM and the Ki is less than 100 nM.

In the case of `CCCS(=N)(=O)c1ccc2c(c1)CN(C(C)(C)CCc1ccc(O)c(OC(C)(C)C)c1)C2` (stereo not shown) [Compound 18], in assay [1], the IC50 was more than 5000 nM and the inhibition constant (Ki) is more than 5000 nM. Moreover, in assay [2], the IC50 was more than 500 nM and the Ki was more than 500 nM.

Regarding `CCCCS(=N)(=O)c1ccc2c(c1)CN(C(C)(C)CCc1ccc(O)c(OC(C)(C)C)c1)C2` (stereo not shown) [Compound 19], in assay [1], the IC50 is more than 1000 nM and the Ki was more than 1000 nM. In assay [2], the IC50 is more than 100 nM and the Ki was more than 100 nM.

Usually IC50 stands for the concentration that gives 50% inhibition. As usually defined, the Ki is a dissociation constant, usually derived from enzyme kinetics or from competition with a known ligand.

These data come from US12371405B1, “Isoindol-sulfilimine compound and use as a sigma-2 receptor inhibitor thereof” (SHANGHAI UNIVERSITY OF MEDICINE AND HEALTH SCIENCES, priority 2024, dated 2025).
